Measured values as given in ChEMBL document CHEMBL5143648, “Exploration of inhibitors of the bacterial LexA repressor-protease” (Bioorg Med Chem Lett, 2022).

Experiment: Inhibition of N-terminal tetra-cysteine tagged LexA repressor (unknown origin) assessed as reduction in RecA-mediated autoproteolysis by measuring release of fluorophore-labeled peptide using FlAsH-EDT2 as fluorescent substrate by FlAsH-LexA assay
Set-up: species or system Bacteria

Row | Structure (SMILES) | IC50
1 | COC(=O)c1ccc(NC(=O)Cn2nnc(C(=O)Nc3ccccc3)c2N)cc1 | 75 µM
2 | Cc1ccc(/N=C2\NC(=O)C(N)=C2C(=O)Nc2ccccc2)cc1 | > 250 µM
3 | CCOc1ccc(NC(=O)Cn2nnc(C(=O)Nc3ccccc3)c2N)cc1 | 48 µM
4 | Cc1ccc(NC(=O)Cn2nnc(C(=O)Nc3ccccc3)c2N)cc1 | 107 µM
5 | Nc1ccc(NC(=O)Cn2nnc(C(=O)Nc3ccccc3)c2N)cc1 | > 250 µM
6 | Nc1c(C(=O)Nc2ccccc2)nnn1CC(=O)Nc1c(Cl)cc(Cl)cc1Cl | > 250 µM
7 | Nc1c(C(=O)Nc2ccccc2)nnn1CC(=O)NC1CCCCCC1 | > 250 µM
8 | Cc1ccc(NC(=O)Cn2nnc(C(=O)Nc3ccccc3)c2N)c(C)c1 | > 250 µM
9 | Nc1c(C(=O)Nc2ccccc2)nnn1CC(=O)Nc1ccc(C(=O)C(F)(F)F)cc1 | > 250 µM
10 | Nc1c(C(=O)Nc2ccccc2)nnn1CC(=O)Nc1ccc(Cl)cc1 | > 250 µM
11 | Cc1ccccc1NC(=O)Cn1nnc(C(=O)Nc2ccccc2)c1N | > 250 µM
12 | Nc1c(C(=O)Nc2ccccc2)nnn1CC(=O)Nc1ccc(O)cc1 | > 250 µM
